≈ marks a conversion by molar mass, not a printed value. Where a SMILES comes first, the peptide text is derived from it.
Legend:
[1] = tested on: Candida albicans (NCPF 1467); type: cell-based
Protocol: (§1) The minimal inhibitory concentrations (MICs) and minimum bactericidal concentrations (MBCs) were evaluated to determine the antimicrobial activity of synthetic peptides. The microorganisms employed in the study are two kinds of Gram-negative bacteria, Escherichia coli (NCTC 10418) and Pseudomonas aeruginosa (ATCC 27853), three kinds of Gram-positive bacteria, Staphylococcus aureus (NCTC 10788), Methicillin-resistant Staphylococcus aureus (MRSA, ATCC 12493) and Enterococcus faecalis (NCTC 12697) and a yeast, Candida albicans (NCPF 1467), as indicated previously. […] The sterilised broth medium was used as the positive control and the microorganism cultured in the medium only was treated as the negative control. […] The MBC results were defined as the lowest bactericidal concentrations of peptide. The antimicrobial activity of peptides was tested by monitoring the absorbance at 550 nm using an ELISA plate reader (Biolise BioTek EL808, Winooski, VT, USA).

[2] = tested on: Pseudomonas aeruginosa (ATCC 27853); type: cell-based
Protocol: as §1

[3] = tested on: Methicillin-resistant Staphylococcus aureus (MRSA, ATCC 12493); type: cell-based
Protocol: as §1

[4] = tested on: Staphylococcus aureus (NCTC 10788); type: cell-based
Protocol: as §1

[5] = tested on: Enterococcus faecalis (NCTC 12697); type: cell-based
Protocol: as §1

[6] = tested on: Escherichia coli (NCTC 10418); type: cell-based
Protocol: as §1

[7] = tested on: horse red blood cells; experiment: Haemolysis assay and therapeutic index; settings: 2% horse red blood cells in PBS, 2 h, 37 °C, absorbance 570 nm; best-fitted curve
Protocol: The haemolytic activity of synthetic peptides was determined using the horse red blood cells that were extracted from the de-fibroblast whole horse blood (TCS Biosciences Ltd. Buckingham, UK). […] Briefly, the red blood cells were harvested and washed using PBS until all broken red blood cells were removed. Then, a 2% cell suspension was prepared using PBS. The peptide concentrations were set as antimicrobial activity assay and mixed with the red blood cells in the microcentrifuge tubes. After a 2 h-incubation at 37 °C, the tubes were centrifuged and the suspension was transferred into a clear 96 well plate. The absorbance of released haemoglobin in the suspension was detected at 570 nm by a plate reader. Besides, the red blood cells treated with PBS and 1% Triton X-100 were used as the negative and positive controls, respectively. […] The therapeutic index (TI) was further determined as below:(1) TI=HC50/product of n MICsn,

SMILES: CC[C@H](C)[C@H](NC(=O)[C@H](CCCCN)NC(=O)[C@@H]1CCCN1C(=O)[C@H](CC(C)C)NC(=O)[C@@H](N)Cc1ccccc1)C(=O)N[C@@H](CC(C)C)C(=O)N[C@@H](CCCCN)C(=O)N[C@H](C(=O)N[C@@H](C)C(=O)N[C@@H](C)C(=O)N[C@@H](CCCCN)C(N)=O)C(C)C [OSc] (H-FLPKILKVAAK-NH2)
- MBC ([1]; NCPF 1467, 18 h): > 512 µM
- MIC ([1]; NCPF 1467, 24 h): 256 µM (≈ 314 µg/mL)
- MBC ([2]; ATCC 27853, 18 h): > 512 µM
- MIC ([2]; ATCC 27853, 24 h): > 512 µM
- MBC ([3]; ATCC 12493, 18 h): > 512 µM
- MIC ([3]; ATCC 12493, 24 h): > 512 µM
- MBC ([4]; NCTC 10788, 18 h): > 512 µM
- MIC ([4]; NCTC 10788, 24 h): 256 µM (≈ 314 µg/mL)
- MBC ([5]; NCTC 12697, 18 h): > 512 µM
- MIC ([5]; NCTC 12697, 24 h): > 512 µM
- MBC ([6]; NCTC 10418, 18 h): > 512 µM
- MIC ([6]; NCTC 10418, 24 h): > 512 µM
- HC50 (concentration causing 50% haemolysis of the red blood cells) [7]: >512 µM

From PMC7472354, “Enhanced Antimicrobial Activity of N-Terminal Derivatives of a Novel Brevinin-1 Peptide from The Skin Secretion of Odorrana schmackeri” (Toxins, 2020)
